Here are results for 14 compounds from patent US20230080054A1 (ILDONG PHARMACEUTICAL CO., LTD., priority 2021, published 2023).

The target in one assay is T1, human ANO6 (Homo sapiens, UniProt Q4KMQ2).
T1 construct: expressed in transfected cells
T1 sequence (Q4KMQ2 1-931 isoform Q4KMQ2-2): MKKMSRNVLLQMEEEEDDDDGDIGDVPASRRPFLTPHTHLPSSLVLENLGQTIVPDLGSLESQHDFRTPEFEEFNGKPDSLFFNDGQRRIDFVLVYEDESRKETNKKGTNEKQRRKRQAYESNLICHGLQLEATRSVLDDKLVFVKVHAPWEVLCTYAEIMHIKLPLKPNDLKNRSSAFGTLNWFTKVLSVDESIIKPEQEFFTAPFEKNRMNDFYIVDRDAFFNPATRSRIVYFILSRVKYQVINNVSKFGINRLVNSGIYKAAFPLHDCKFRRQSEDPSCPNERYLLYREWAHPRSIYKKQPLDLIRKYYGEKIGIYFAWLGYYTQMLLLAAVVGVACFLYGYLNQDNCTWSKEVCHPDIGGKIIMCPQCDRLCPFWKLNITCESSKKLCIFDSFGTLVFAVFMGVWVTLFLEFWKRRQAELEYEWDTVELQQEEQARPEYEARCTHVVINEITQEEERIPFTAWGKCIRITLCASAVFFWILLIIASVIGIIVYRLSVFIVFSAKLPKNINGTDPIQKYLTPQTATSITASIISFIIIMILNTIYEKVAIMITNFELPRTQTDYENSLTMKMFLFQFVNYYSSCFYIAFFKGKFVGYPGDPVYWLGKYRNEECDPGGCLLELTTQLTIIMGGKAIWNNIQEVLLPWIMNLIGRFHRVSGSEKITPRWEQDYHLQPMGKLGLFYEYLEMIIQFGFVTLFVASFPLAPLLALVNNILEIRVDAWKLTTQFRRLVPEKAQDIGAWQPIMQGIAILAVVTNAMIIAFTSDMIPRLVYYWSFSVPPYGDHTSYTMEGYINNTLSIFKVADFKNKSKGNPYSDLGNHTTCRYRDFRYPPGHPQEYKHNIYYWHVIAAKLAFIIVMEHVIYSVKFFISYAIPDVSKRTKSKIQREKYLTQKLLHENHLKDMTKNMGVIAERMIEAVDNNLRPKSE
The experiment in a line: LACT C2 assay (phosphatidylserine scramblase function assay). The format is cell-based. The note with it: FRT cells expressing human ANO6, 10 μM ionomycin; for inhibition at 0.1 µM: test compound 100 nM, read-out: Inhibition Level 100 nM; for inhibition at 1 µM: test compound 1 μM, read-out: Inhibition Level 1 μM. In a few lines: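 FRT cells stably expressing human ANO6 were pretreated with compound (1% DMSO) for 10 min, then stimulated with 10 μM ionomycin for 10 min. Surface phosphatidylserine was stained with 500 nM Lact-C2-GFP and quantified by imaging. Inhibition was scaled between unstimulated (100%) and ionomycin-only (0%) controls, averaged over triplicates.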

The subject of assay [1] is platelet-rich plasma (PRP). Briefly: Recalcification time of rat platelet-rich plasma. As to conditions: 30 μM, vs 2% DMSO control. The method, then:
Example 5: Recalcification Time
1. Materials and Instruments
Isoflurane (Hana Pharm, cat. #9008), Isotonic Sodium Chloride Injection (Daihan Pharm, cat. #331), Citrate-dextrose solution (Sigma-Aldrich, cat. #C3821), Calcium chloride solution (Sigma-Aldrich, cat. #21115), 22G Syringe 10 mL (Koreavaccine), Dimethyl sulfoxide (Sigma-Aldrich, cat. #D5879), Apixaban (AK scientific, cat. #X1060), 96 Well Cell Culture Plates (SPL Life Sciences, cat. #30096), Synergy H4 Hybrid Microplate Reader (BioTek), Combi R515 Multi-purpose Centrifuge (Hanil Scientific), BS-06 Shaking & Heating Baths (JEIO TECH), and PST-60HL-4 Plate Shaker-Thermostat (Bio-San)
Seven-week-old male SD Rat (ORIENT BIO.) were maintained under controlled conditions of temperature (22±2° C.) and 12-h light/12-h dark cycle. Rats were housed in the pathogen-free facility of the Laboratory Animal Research Center in Ildong Pharmaceutical Co. Ltd. All procedures on animals were conducted in accordance with the relevant national regulatory guidelines and individual experiments approved by the Ildong Pharmaceutical Co. Ltd., Institutional Animal Care and Use Committee (IACUC) (approval No.: A2106-3, 2108-4).
The ability of test compounds to interfere with plasma coagulation, in the presence of platelets, was analyzing by measuring the recalcification time of rat plasma. The blood of animals was collected into 15 mL tubes containing Citrate-dextrose solution (9:1 v/v) before performing the assays. For recalcification time, platelet-rich plasma (PRP) samples were obtained by centrifugation at 360×g for 10 minutes. And the PRP were preincubated for 5 minutes (37° C.). In a 96 well microplate, test compounds (2 μL) were treated in 98 μL of platelet rich plasma. After mixing with a pipette, it was incubated at 37° C. for 15 minutes. The reaction was started by addition of 200 μL of pre-warmed CaCl2) (16 mM). Immediately, put the microplate in a microplate reader and the signals were measured by the following steps.
(1) 405 nm wavelength absorbance signals were recorded in every 10 seconds at 37° C.
(2) Basal absorbance signals were recorded for 0 second.
The signal variance of each of the test compounds was obtained by the following step.
(1) Background signals (t=O) were subtracted from recording values, and the resulting values were converted to change values. The values at 0 second were set to be zero.
The retardation time of test compound were calculated by the following formula:
Retardation time (sec)=[log EC50 (test sample)−log EC50 (DMSO control)]
As described above, a DMSO control group is a group to which 2% DMSO was treated.
The assay result is shown in Table 5, where compounds (30 μM) having less than 20 seconds of retardation time are marked by ‘C’; the compounds (30 μM) having retardation time of 20 seconds or more to less than 50 seconds are marked by ‘B’; and the compounds (30 μM) having retardation time of 50 seconds or more are marked by ‘A’.

Where only a bound is given, the exact number is not on record here.

One may read the inhibition as the drop in the measured response relative to a control, in per cent. As to `O=C(Nc1cccc(F)c1)c1cccc(Nc2ccc(-c3ccccc3)cn2)c1` [Compound 128, N-(3-fluorophenyl)-3-((5-phenylpyridin-2-yl)amino)benzamide], on human ANO6, the inhibition at 0.1 µM was at least 60% and the inhibition at 1 µM was at least 60%. Besides, the “Inhibition Level (retardation time, recalcification time)” value in assay [1] is reported as “A (the compounds (30 μM) having retardation time of 50 seconds or more)”.
As for `O=C(Nc1cccc([N+](=O)[O-])c1)c1cccc(Nc2ccc(-c3cccc(F)c3)cn2)c1` [Compound 141, 3-((5-(3-fluorophenyl)pyridin-2-yl)amino)-N-(3-nitrophenyl)benzamide], on human ANO6, the inhibition at 0.1 µM was at least 60% and the inhibition at 1 µM is at least 60%. Also, in assay [1], the “Inhibition Level (retardation time, recalcification time)” value is “A (the compounds (30 μM) having retardation time of 50 seconds or more)”.
With `O=C(NCCC12CC3CC(CC(C3)C1)C2)c1cccc(Nc2ccc(-c3cccc(F)c3)cn2)c1` [Compound 142, N-(2-(adamantan-1-yl)ethyl)-3-((5-(3-fluorophenyl)pyridin-2-yl)amino)benzamide], at human ANO6, the inhibition at 0.1 µM was at least 60% and the inhibition at 1 µM is at least 60%. Besides, the “Inhibition Level (retardation time, recalcification time)” value in assay [1] is “A (the compounds (30 μM) having retardation time of 50 seconds or more)”.
Turning to `O=C(Nc1cccc(F)c1)c1cccc(Nc2ccc(-c3ccccn3)cc2)c1` [Compound 154, N-(3-fluorophenyl)-3-((4-(pyridin-2-yl)phenyl)amino)benzamide], at human ANO6, the inhibition at 0.1 µM is at least 60% and the inhibition at 1 µM was at least 60%. Also, the “Inhibition Level (retardation time, recalcification time)” value in assay [1] is given as “A (the compounds (30 μM) having retardation time of 50 seconds or more)”.
Take `O=C(Nc1cccc(F)c1)c1cccc(Nc2ccc(-c3cccnc3)cc2)c1` [Compound 160, N-(3-fluorophenyl)-3-((4-(pyridin-3-yl)phenyl)amino)benzamide]: at human ANO6, the inhibition at 0.1 µM is at least 60% and the inhibition at 1 µM was at least 60%. The “Inhibition Level (retardation time, recalcification time)” value in assay [1] is reported as “B (the compounds (30 μM) having retardation time of 20 seconds or more to less than 50 seconds)”.
With `O=C(N[C@@H]1C[C@H]1c1ccccc1)c1cccc(Nc2ccc(-c3cccnc3)cc2)c1` [Compound 161, N-((1R,2S)-2-phenylcyclopropyl)-3-((4-(pyridin-3-yl)phenyl)amino)benzamide], at human ANO6, the inhibition at 0.1 µM was at least 60% and the inhibition at 1 µM is at least 60%. In addition, the “Inhibition Level (retardation time, recalcification time)” value in assay [1] is reported as “A (the compounds (30 μM) having retardation time of 50 seconds or more)”.
As to `O=C(Nc1cccc(F)c1)c1cccc(Nc2ccc(-c3cncnc3)cc2)c1` [Compound 164, N-(3-fluorophenyl)-3-((4-(pyrimidin-5-yl)phenyl)amino)benzamide], on human ANO6, the inhibition at 0.1 µM lay in the range of 30 to 60%. Further, in assay [1], the “Inhibition Level (retardation time, recalcification time)” value was “C (compounds (30 μM) having less than 20 seconds of retardation time)”.
For `O=C(N[C@@H]1C[C@H]1c1ccccc1)c1cccc(Nc2ccc(-c3cncnc3)cc2)c1` [Compound 165, N-((1R,2S)-2-phenylcyclopropyl)-3-((4-(pyrimidin-5-yl)phenyl)amino)benzamide] the same measures were under 30% and “C (compounds (30 μM) having less than 20 seconds of retardation time)”.
Take `O=C(Nc1cccc(F)c1)c1cccc(Nc2ccc(-c3ncccn3)cc2)c1` [Compound 170, N-(3-fluorophenyl)-3-((4-(pyrimidin-2-yl)phenyl)amino)benzamide]: the inhibition at 0.1 µM on human ANO6 was 30 to 60%. Further, the “Inhibition Level (retardation time, recalcification time)” value in assay [1] is recorded as “B (the compounds (30 μM) having retardation time of 20 seconds or more to less than 50 seconds)”.
For `O=C(N[C@@H]1C[C@H]1c1ccccc1)c1cccc(Nc2ccc(-c3ncccn3)cc2)c1` [Compound 171, N-((1R,2S)-2-phenylcyclopropyl)-3-((4-(pyrimidin-2-yl)phenyl)amino)benzamide] the same measures were under 30% and “C (compounds (30 μM) having less than 20 seconds of retardation time)”.
In the same order, the values of `O=C(Nc1cccc(F)c1)c1cccc(Nc2ccc(-c3cnccn3)cc2)c1` [Compound 172, N-(3-fluorophenyl)-3-((4-(pyrazin-2-yl)phenyl)amino)benzamide] are at least 60% and “C (compounds (30 μM) having less than 20 seconds of retardation time)”.
In the same order, the values of `O=C(N[C@@H]1C[C@H]1c1ccccc1)c1cccc(Nc2ccc(-c3cnccn3)cc2)c1` [Compound 173, N-((1R,2S)-2-phenylcyclopropyl)-3-((4-(pyrazin-2-yl)phenyl)amino)benzamide] are under 30% and “B (the compounds (30 μM) having retardation time of 20 seconds or more to less than 50 seconds)”.
Take `O=C(Nc1cccc(F)c1)c1cccc(Nc2ccc(-c3ccncn3)cc2)c1` [Compound 175, N-(3-fluorophenyl)-3-((4-(pyrimidin-4-yl)phenyl)amino)benzamide]: the inhibition at 0.1 µM on human ANO6 was at least 60%. Also, in assay [1], the “Inhibition Level (retardation time, recalcification time)” value was “B (the compounds (30 μM) having retardation time of 20 seconds or more to less than 50 seconds)”.
`O=C(Nc1cccc(F)c1)c1cccc(Nc2ncc(-c3ccoc3)cn2)c1` [Compound 176, N-(3-fluorophenyl)-3-((5-(furan-3-yl)pyrimidin-2-yl)amino)benzamide]: the “Inhibition Level (retardation time, recalcification time)” value in assay [1] is on record as “C (compounds (30 μM) having less than 20 seconds of retardation time)”.
